For one data set, the system named is HEK293. Nature of the data set: EBV LMP1 TES2 canonical NF-kB signalling blockers – cell-based, HEK293, luciferase, cherry-pick, dose response (AID 588343). In kind it is functional. Conditions: Homo sapiens.
Data set [1] can be described thus: decrease of insulin promoter-GFP reporter – imaging, high-content screening, mouse beta cells (AID 1628). In kind it is functional. The note with it: MIN6.
Data set [2] is described as follows: MIN6 cell viability loss – mouse insulinoma, cytotoxicity control, dose response (AID 2122).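 Further: confirmatory high-throughput counterscreen run to flag cytotoxic compounds.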 In kind it is functional.
The next data set deals with Cytochrome P450 3A4 (Homo sapiens, UniProt P08684).
In data set [3] the target is T1, Corticotropin-releasing factor receptor 2/Corticotropin-releasing factor-binding protein (Homo sapiens, UniProt P24387+Q13324).
T1 sequence (Q13324 whole entry): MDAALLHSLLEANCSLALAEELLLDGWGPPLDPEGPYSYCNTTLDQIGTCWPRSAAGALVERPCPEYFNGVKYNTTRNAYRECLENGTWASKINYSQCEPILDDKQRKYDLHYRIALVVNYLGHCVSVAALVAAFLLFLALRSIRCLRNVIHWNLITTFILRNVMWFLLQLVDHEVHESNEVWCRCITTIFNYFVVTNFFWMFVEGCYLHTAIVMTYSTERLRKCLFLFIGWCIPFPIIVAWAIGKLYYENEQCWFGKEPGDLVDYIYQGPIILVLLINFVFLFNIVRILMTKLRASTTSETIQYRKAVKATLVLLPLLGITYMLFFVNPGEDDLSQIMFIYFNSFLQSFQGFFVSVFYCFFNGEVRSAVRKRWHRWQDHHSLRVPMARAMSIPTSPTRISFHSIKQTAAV
T1 sequence (P24387 whole entry): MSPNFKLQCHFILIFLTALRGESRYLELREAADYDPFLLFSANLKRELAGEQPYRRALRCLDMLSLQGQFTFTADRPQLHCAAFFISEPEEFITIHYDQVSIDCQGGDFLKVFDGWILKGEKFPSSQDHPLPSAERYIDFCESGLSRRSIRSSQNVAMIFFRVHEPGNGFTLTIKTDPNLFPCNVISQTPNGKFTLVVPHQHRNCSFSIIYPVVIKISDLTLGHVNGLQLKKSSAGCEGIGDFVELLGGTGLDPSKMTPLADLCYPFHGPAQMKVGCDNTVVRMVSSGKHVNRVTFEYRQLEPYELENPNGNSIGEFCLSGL
Briefly: activators of CRF receptor 2 with binding protein – uHTS hits, confirmation (AID 602473). Type of data set: functional. The note with it: read-out: EC50_Mean.

The next data set has as its target T2, Cytochrome P450 1A2 (Homo sapiens, UniProt P05177).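 Further: PubChem cytochrome P450 panel assay, CYP1A2 panel member.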
T2 sequence (P05177 whole entry): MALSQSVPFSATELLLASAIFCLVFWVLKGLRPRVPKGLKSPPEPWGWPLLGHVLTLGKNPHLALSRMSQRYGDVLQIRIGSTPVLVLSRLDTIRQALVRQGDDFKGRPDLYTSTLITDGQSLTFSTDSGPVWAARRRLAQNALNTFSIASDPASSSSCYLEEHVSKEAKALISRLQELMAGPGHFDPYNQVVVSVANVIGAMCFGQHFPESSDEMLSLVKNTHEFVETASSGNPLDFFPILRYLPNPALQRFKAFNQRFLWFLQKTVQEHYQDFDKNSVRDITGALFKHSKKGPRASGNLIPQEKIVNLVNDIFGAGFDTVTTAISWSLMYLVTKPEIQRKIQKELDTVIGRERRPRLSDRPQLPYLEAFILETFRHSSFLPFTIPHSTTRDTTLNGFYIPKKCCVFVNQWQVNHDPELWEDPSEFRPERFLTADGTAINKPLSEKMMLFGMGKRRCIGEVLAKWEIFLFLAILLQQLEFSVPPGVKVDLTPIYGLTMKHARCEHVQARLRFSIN

The next data set addresses Cytochrome P450 2C9 (Homo sapiens, UniProt P11712).
For the next data set, the target named is Cytochrome P450 2C19 (Homo sapiens, UniProt P33261). Briefly: Cytochrome panel assay with activity outcomes. Panel member name: p450-cyp2c19 Compounds with AC50 equal or less than 10 uM are considered active. Type of data set: functional. The note with it: read-out: AC50.
Data set [4] concerns Streptococcus sp. 'group A'. Briefly: Streptococcus pyogenes SK(-)GAS viability under kanamycin – luminescence, BacTiterGlo, confirmation, counter-screen for streptokinase expression inhibitor project, dose response (AID 1900). In kind it is functional, organism-based.
The next data set concerns the target T3, Streptokinase A (Streptococcus pyogenes serotype M1, UniProt P10520).
T3 sequence (P10520 whole entry): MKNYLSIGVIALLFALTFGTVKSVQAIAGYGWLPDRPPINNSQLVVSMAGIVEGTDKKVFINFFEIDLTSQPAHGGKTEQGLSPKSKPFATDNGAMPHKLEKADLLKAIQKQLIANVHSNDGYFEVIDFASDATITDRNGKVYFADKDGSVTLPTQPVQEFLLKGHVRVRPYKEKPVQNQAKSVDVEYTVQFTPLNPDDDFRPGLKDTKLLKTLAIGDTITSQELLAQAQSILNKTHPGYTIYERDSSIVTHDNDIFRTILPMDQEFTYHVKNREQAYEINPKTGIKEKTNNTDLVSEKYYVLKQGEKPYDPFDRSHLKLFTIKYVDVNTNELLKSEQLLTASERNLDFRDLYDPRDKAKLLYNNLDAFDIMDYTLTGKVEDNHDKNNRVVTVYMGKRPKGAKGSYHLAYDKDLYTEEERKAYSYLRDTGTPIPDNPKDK
Briefly: viability-normalized secreted streptokinase activity reduction – plasminogen activation absorbance, OD405, dose response (AID 1914).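 Further: secreted streptokinase activity via plasminogen activation per viability signal from cell pellet.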 Type of data set: functional, Streptococcus pyogenes M1 GAS.

Another data set concerns Streptococcus. Nature of the data set: GAS UMAA2166 growth inhibition – luminescence, BacTiterGlo, counter-screen for streptokinase expression inhibitor project, dose response (AID 1915).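 Further: potency for reduction of bacterial viability or growth.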 In kind it is functional, organism-based.
The target in data set [5] is DNA dC->dU-editing enzyme APOBEC-3A (Homo sapiens, UniProt P31941). Nature of the data set: Dose Response confirmation of small molecule APOBEC3A DNA Deaminase Inhibitors via a fluorescence-based single-stranded DNA deaminase assay. [Related pubchem assays (depositor defined):AID493011, AID493024]. In kind it is functional.
Data set [6] has as its target DNA dC->dU-editing enzyme APOBEC-3G (Homo sapiens, UniProt Q9HC16). In kind it is functional.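 Further: Dose-response counterscreen measuring inhibition of APOBEC3G DNA deaminase activity, run while confirming APOBEC3A inhibitors.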
A short description of data set [7]: reduction of Shn3 3'UTR-driven luciferase in osteoblasts – cell-based, Clone20 osteoblasts, firefly luciferase, cherry-picked, dose response (AID 624132).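 Further: firefly luciferase luminescence from reporter carrying the Shn3 3'UTR in osteoblasts.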 Type of data set: functional.
Data set [8] in a line: loss of viability in HepG2 cells – cell-based, CellTiter-Glo, cherry-picked, cytotoxicity control for Shn3 inhibitor project, dose response (AID 624134). In kind it is functional.
Data set [9] is described as follows: non-specific 3'UTR reporter inhibition in Clone20-Shn3RL – cell-based, Renilla luciferase, cherry-picked, counter-screen for Shn3 inhibitor project, dose response (AID 624133). In kind it is functional.

Activity calls are given as the source filed them. Bounds are passed on as bounds.

Sequence of Cytochrome P450 3A4 (P08684 whole entry): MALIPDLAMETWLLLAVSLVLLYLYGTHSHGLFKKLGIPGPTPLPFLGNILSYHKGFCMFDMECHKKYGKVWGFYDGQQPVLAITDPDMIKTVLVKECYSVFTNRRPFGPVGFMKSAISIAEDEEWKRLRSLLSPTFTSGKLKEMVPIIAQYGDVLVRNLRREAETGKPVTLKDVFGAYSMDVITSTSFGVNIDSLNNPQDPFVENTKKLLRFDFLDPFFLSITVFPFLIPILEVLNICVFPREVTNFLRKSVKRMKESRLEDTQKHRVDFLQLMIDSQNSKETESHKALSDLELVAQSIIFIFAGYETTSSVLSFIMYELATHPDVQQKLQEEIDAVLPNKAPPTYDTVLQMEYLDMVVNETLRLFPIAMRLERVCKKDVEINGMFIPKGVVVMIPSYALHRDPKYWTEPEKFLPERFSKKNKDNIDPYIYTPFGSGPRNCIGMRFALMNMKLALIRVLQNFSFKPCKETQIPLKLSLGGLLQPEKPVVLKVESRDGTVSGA
Sequence of DNA dC->dU-editing enzyme APOBEC-3G (Q9HC16 whole entry): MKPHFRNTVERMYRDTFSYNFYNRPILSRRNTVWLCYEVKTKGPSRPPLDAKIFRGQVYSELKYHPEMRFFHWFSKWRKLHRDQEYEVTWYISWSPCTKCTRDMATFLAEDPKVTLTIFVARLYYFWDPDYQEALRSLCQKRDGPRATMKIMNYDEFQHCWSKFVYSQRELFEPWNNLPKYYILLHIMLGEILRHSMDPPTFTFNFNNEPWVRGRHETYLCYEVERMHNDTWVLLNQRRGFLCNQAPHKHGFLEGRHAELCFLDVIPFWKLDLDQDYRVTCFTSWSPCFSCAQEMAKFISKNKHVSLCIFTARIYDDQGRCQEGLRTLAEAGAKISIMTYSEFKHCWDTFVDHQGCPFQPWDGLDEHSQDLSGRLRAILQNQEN
Sequence of Cytochrome P450 2C19 (P33261 whole entry): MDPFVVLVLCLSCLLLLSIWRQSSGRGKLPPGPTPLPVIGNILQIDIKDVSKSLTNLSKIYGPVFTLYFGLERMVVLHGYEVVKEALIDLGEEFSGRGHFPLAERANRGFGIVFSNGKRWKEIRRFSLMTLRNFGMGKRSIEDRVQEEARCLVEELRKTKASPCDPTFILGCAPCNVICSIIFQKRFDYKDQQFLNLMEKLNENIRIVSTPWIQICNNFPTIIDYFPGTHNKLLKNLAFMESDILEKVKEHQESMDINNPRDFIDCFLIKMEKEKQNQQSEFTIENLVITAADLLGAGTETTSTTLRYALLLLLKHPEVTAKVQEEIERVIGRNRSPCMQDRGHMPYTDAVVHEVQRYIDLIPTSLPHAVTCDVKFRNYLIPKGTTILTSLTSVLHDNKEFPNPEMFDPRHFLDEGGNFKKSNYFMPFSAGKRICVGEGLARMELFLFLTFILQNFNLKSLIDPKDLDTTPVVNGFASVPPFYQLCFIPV
Sequence of Cytochrome P450 2C9 (P11712 whole entry): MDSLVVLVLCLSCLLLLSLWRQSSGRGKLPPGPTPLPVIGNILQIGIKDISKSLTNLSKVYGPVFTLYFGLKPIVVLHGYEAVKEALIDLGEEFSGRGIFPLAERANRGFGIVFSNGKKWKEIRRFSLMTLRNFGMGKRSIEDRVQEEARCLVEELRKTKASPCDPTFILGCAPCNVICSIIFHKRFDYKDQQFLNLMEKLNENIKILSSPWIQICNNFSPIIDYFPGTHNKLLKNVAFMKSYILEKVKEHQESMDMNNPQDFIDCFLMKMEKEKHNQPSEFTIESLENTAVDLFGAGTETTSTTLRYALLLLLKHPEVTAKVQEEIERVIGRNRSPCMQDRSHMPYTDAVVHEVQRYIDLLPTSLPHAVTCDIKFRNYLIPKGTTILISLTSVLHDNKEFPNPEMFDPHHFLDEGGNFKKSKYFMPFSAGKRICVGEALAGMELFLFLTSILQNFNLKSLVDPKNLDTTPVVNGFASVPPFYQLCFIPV
Sequence of DNA dC->dU-editing enzyme APOBEC-3A (P31941 whole entry): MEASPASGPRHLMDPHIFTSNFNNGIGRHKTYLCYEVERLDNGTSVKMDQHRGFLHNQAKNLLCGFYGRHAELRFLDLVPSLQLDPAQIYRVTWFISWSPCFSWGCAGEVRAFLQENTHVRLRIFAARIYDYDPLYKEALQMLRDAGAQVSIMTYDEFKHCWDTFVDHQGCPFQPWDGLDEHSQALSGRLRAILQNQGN

With `Cc1cc(C(=O)CN2C(=O)c3ccccc3C2=O)c(C)n1Cc1cccs1`, the AC50 with HEK293 was 4.41 µM (active).
Turning to `CCOC(=O)c1cnc2cc(Cl)c(OC)cc2c1NCC1CCCO1` (configuration not stated), the IC50 in data set [1] is 2.7 µM (active); in data set [2], 15 µM (inactive).
Turning to `O=C(c1cccc(F)c1)N1CCC2(CC1)CN(c1ccccc1)C2`, the AC50 entry on Cytochrome P450 3A4 was “inconclusive”.
For `C=CCn1c(-c2ccc(OC)cc2)nc2ccccc21`, the figures for the IC50 in data set [1] and in data set [2] were 4.04 µM (active) and 4.36 µM (active), respectively. Moreover, the EC50 in data set [3] is > 53 µM (inactive).
`O=C(c1ccncc1)N1CCC2(CC1)CN(C(c1ccccc1)c1ccccc1)C2`: the figures for the AC50 at Cytochrome P450 1A2 and at Cytochrome P450 3A4 were 15.8 µM (inconclusive) and “inconclusive”, respectively.
`O=[N+]([O-])c1cccnc1N1CCOCC1`: the results for the AC50 at Cytochrome P450 1A2, on Cytochrome P450 2C9 and at Cytochrome P450 3A4 were 28.2 µM (inconclusive), 12.6 µM (inconclusive) and “inconclusive”, respectively.
Regarding `CC(C)(C)C(=O)N1CCN(c2ccc([N+](=O)[O-])c(NCC3CCCO3)c2)CC1` (configuration not stated), the figures for the AC50 at Cytochrome P450 2C19, at Cytochrome P450 1A2 and at Cytochrome P450 3A4 were 25.1 µM (inconclusive), 14.1 µM (inconclusive) and “inconclusive”, respectively.
With `O=C(c1cnccn1)N1CCC2(CC1)CN(C(c1ccccc1)c1ccccc1)C2`, the values for the AC50 on Cytochrome P450 1A2 and at Cytochrome P450 3A4 were 25.1 µM (inconclusive) and “inconclusive”, respectively.
For the compound `CC(=O)c1cccc(OC(=O)c2ccc3c(=O)n4c(nc3c2)CCC4)c1`, the EC50 in [4] is 12.6 µM (active); at Streptokinase A, > 150 µM (not active); with Streptococcus it was 14.4 µM (active). Also, the IC50 is 6.27 µM (active) in [5] and 5.35 µM (active) in data set [6].
As to `C=CCn1c(NCCc2ccccc2)nc2c1c(=O)n(C)c(=O)n2C`, the IC50 in data set [1] was 2.56 µM (active); in [2], 1.86 µM (active). The AC50 is 1.83 µM (active) in data set [7], 57.2 µM (active) in data set [8] and 7.83 µM (active) in data set [9].

These data come from ChEMBL document CHEMBL1201862, “PubChem BioAssay data set” (2004).
